Laboratory results reported in patent publication US5354862A, “Preparation and the use of halopropargylated cyclic quaternary ammonium compounds as antimicrobial agents” (Rohm and Haas Company, priority 1993, dated 1994).
Like-named read-outs stand apart in the source and are kept apart here.

Assays:
Test in all cases: Broth two-fold serial dilution MIC test
[1] = test system: Pseudomonas aeruginosa; format: cell-based, Pseudomonas aeruginosa (ATCC 15442); conditions: Psae
How it was run: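 Broth two-fold serial dilution MIC (500 to 0.25 ppm) was run against Pseudomonas aeruginosa, with compound from 1% stock in acetone/methanol/water 5:3:2. Vessels inoculated with standardized broth-grown cells were incubated, then scored for growth. MIC is the lowest concentration giving complete growth inhibition.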

[2] = test system: Escherichia coli; format: cell-based, Escherichia coli (ATCC 11229); conditions: Ecol
How it was run: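 Broth two-fold serial dilutions ran from 500 down to 0.25 ppm, prepared from a stock in acetone/methanol/water (5:3:2). Each tube received a standardized bacterial suspension and was incubated at a temperature suited to the species. MIC is the lowest concentration giving complete growth inhibition.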

[3] = test system: Staphylococcus aureus; format: cell-based, Staphylococcus aureus (ATCC 6538); conditions: Saur
How it was run: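 Broth two-fold serial dilution from 500 ppm down to 0.25 ppm, compound delivered from acetone/methanol/water stock, inoculated with standardized cell suspension and incubated at an organism-appropriate temperature. MIC is the lowest concentration giving complete growth inhibition.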

[4] = test system: Aspergillus niger; format: cell-based, Aspergillus niger (ATCC 6275); conditions: Anig, TSB media
How it was run: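 Two-fold broth serial dilution from 500 ppm down to 0.25 ppm, compound stock in acetone/methanol/water 5:3:2. Vessels inoculated with standardized spore suspension harvested from agar slants, incubated at a species-appropriate temperature, then scored for growth/no growth. MIC is the lowest concentration giving complete growth inhibition.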

[5] = Pseudomonas aeruginosa, Table 2, M9G media, read-out: MIC
[6] = Pseudomonas aeruginosa, Table 2, TSB media, read-out: MIC
[7] = Escherichia coli, Table 2, M9G media, read-out: MIC
[8] = Escherichia coli, Table 2, TSB media, read-out: MIC
[9] = Staphylococcus aureus, Table 2, M9G media, read-out: MIC
[10] = Staphylococcus aureus, Table 2, TSB media, read-out: MIC
[11] = Aspergillus niger, Table 2, read-out: MIC

| Structure (SMILES) | MIC ([1]; Table 2, M9G media) [ppm] | MIC ([1]; Table 2, TSB media) [ppm] | MIC ([2]; Table 2, M9G media) [ppm] | MIC ([2]; Table 2, TSB media) [ppm] | MIC ([3]; Table 2, M9G media) [ppm] | MIC ([3]; Table 2, TSB media) [ppm] | MIC ([4]; Table 2) [ppm] | MIC [1, 5] [µg/mL] | MIC [1, 6] [µg/mL] | MIC [2, 7] [µg/mL] | MIC [2, 8] [µg/mL] | MIC [3, 9] [µg/mL] | MIC [3, 10] [µg/mL] | MIC [4, 11] [µg/mL] | also measured |
| --- | --- | --- | --- | --- | --- | --- | --- | --- | --- | --- | --- | --- | --- | --- | --- |
| CCCCCCCCCCCCCC[N+]1(CC#CI)CCCC1 [Compound 39, 1-tetradecyl-1-(3-iodopropargyl)-pyrrolidinium methanesulfonate] | 63 | 63 | 1 | 2 | < 0.25 | < 0.25 | 0.5 | – | – | – | – | – | – | – | – |
| CCCCCCCCCCCCCCCC[N+]1(CC#CI)CCCCC1 [Compound 61, 1-hexadecyl-1-(3-iodopropargyl)-piperidinium methanesulfonate] | 16 | 125 | 8 | 8 | 2 | 2 | 8 | – | – | – | – | – | – | – | – |
| CCCCCCCCCCCCCCCCCC[N+]1(CC#CI)CCCC1 [Compound 16, t-octadecyl-1-(3-iodopropargyl)-pyrrolidinium 4-methylbenzenesulfonate] | – | – | – | – | – | – | – | 500 | 500 | 16 | 63 | 1 | 1 | 32 | – |
| CCCCCCCCCCCCCCCC[N+]1(CC#CI)CCOCC1 [Compound 49, 4-hexadecyl-4-(3-iodopropargyl)-morpholinium 4-methylbenzenesulfonate] | 8 | 8 | 1 | 2 | < 0.25 | 0.5 | 1 | – | – | – | – | – | – | – | – |
| CCCC[N+]1(CC#CI)CCCC1 [Compound 77, 1-n-butyl-1-(3-iodopropargyl)-pyrrolidinium bromide] | > 500 | > 500 | 64 | 64 | 250 | 250 | > 500 | – | – | – | – | – | – | – | – |
| CCCCCCCCCCCCCC[N+]1(CC#CI)CCC(C)CC1 (stereo not drawn) [Compound 52, 1-(tetradecyl)-1-(3-iodopropargyl)-4-methylpiperidinium benzenesulfonate] | – | – | – | – | – | – | – | 16 | 16 | 8 | 2 | < 0.25 | < 0.25 | < 0.25 | – |
| CCCCCCCCCCCCCC[N+]1(CC#CI)CCOCC1 [Compound 28, 4-tetradecyl-4-(3-iodopropargyl)-morpholinium 4-methylbenzenesulfonate] | 4 | 4 | 1 | 2 | – | 0.25 | 8 | – | – | – | – | 0.25 | – | – | – |
| CCCCCCCCCCCCCCCC[N+]1(CC#CI)CCOCC1 [Compound 50, 4-hexadecyl-4-(3-iodopropargyl)-morpholinium benzenesulfonate] | 8 | 8 | 1 | 1 | < 0.25 | 0.5 | 0.5 | – | – | – | – | – | – | – | – |
| CC[N+]1(CC#CI)CCOCC1 [Compound 94, 4-ethyl-4-(3-iodopropargyl)-morpholinium methanesulfonate] | – | – | – | – | – | – | – | > 500 | > 500 | 125 | 125 | 500 | > 500 | > 500 | – |
| CCCCCCCCCCCCCC[N+]1(CC#CI)CCCC1 [Compound 34, 1-tetradecyl-1-(3-iodopropargyl)-pyrrolidinium benzenesulfonate] | 2 | 2 | 0.25 | 0.25 | < 0.25 | < 0.25 | 0.25 | – | – | – | – | – | – | – | MIC ([1]; Table 3 comparison, M9G media): 2 ppm; MIC ([1]; Table 3 comparison, TSB media): 2 ppm; MIC ([2]; Table 3 comparison, M9G media): 0.25 ppm; MIC ([2]; Table 3 comparison, TSB media): 0.25 ppm; MIC ([3]; Table 3 comparison, M9G media): < 0.25 ppm; MIC ([3]; Table 3 comparison, TSB media): < 0.25 ppm; MIC ([4]; Table 3 comparison): 0.25 ppm |
| OCCCCCCCCCCC[N+]1(CC#CI)CCCCC1 [Compound 19, 1-(11-hydroxyundecyl)-1-(3-iodopropargyl)-piperidinium 4-methylbenzenesulfonate] | – | – | – | – | – | – | – | 250 | 250 | – | 32 | 2 | 16 | 32 | – |
| CCCCCCCCCCCCCCCC[N+]1(CC#CI)CCCC1 [Compound 80, 1-hexadecyl-1-(3-iodopropargyl)-pyrrolidinium bromide] | 16 | 125 | 2 | 8 | 0.5 | 0.5 | 1 | – | – | – | – | – | – | – | – |
| OCCCCCCCCCCCC[N+]1(CC#CI)CCCC1 [Compound 2, 1-(12-hydroxydodecyl)-l-(3-iodopropargyl)-pyrrolidinium 4-methylbenzenesulfonate] | – | – | – | – | – | – | – | > 250 | > 250 | – | 250 | 32 | 32 | 32 | – |
| CCCCCCCCCCCCCC[N+]1(CC#CI)CCCCC1 [Compound 62, 1-tetradecyl-1-(3-iodopropargyl)-piperidinium methanesulfonate] | 16 | 63 | 2 | 4 | 0.25 | 0.25 | 0.25 | – | – | – | – | – | – | – | – |
| OCC[N+]1(CC#CI)CCCCC1 [Compound 18, 1-(2-hydroxyethyl)-1-(3-iodopropargyl)-piperidinium 4-methylbenzenesulfonate] | – | – | – | – | – | – | – | 250 | 125 | – | 250 | 16 | 32 | 250 | – |
| CCCCCCCCCCCCCCCC[N+]1(CC#CI)CCCCCC1 [Compound 44, 1-hexadecyl-1-(3-iodopropargyl)-hexamethyleneiminium 4-methylbenzenesulfonate] | – | – | – | – | – | – | – | 8 | 8 | 8 | 16 | 8 | 4 | 8 | – |
| OCCCCCCCC[N+]1(CC#CI)CCCCC1 [Compound 23, 1-(8-hydroxyoctyl)-1-(3-iodopropargyl)-1-piperidinium 4-methylbenzenesulfonate] | – | – | – | – | – | – | – | > 500 | > 500 | – | > 500 | 63 | 250 | > 500 | – |
| IC#CC[N+]1(Cc2ccccc2)CCOCC1 [Compound 73, 4-benzyl-4-(3-iodopropargyi)-morpholinium 4-methylbenzenesulfonate] | – | – | – | – | – | – | – | > 500 | > 500 | 125 | 125 | 125 | 250 | 125 | – |
| OCCCCCCCCC[N+]1(CC#CI)CCCC1 [Compound 5, 1-(9-hydroxynonyl)-1-(3-iodopropargyl)-pyrrolidinium 4-methylbenzenesulfonate] | – | – | – | – | – | – | – | > 500 | > 500 | > 500 | > 500 | 63 | 63 | 250 | – |
| CCCCCCCCCCCCCC[N+]1(CC#CI)CCCCC1C (stereo not drawn) [Compound 51, 1-(tetradecyl)-1-(3-iodopropargyl)-2-methylpiperidinium benzenesulfonate] | 16 | 16 | – | 2 | < 0.25 | < 0.25 | – | – | – | 4 | – | – | – | 0.5 | – |
| C[N+]1(CC#CI)CCOCC1 [Compound 29, 4-methyl-4-(3-iodopropargl)-morpholinium 4-methylbenzenesulfonate] | – | – | – | – | – | – | – | 500 | 500 | 250 | 125 | 500 | 500 | 500 | – |
| CCCCCCCCCCCCCC[N+]1(CC#CI)CCOCC1 [Compound 72, 4-tetradecyl-4-(3-iodopropargyl)-rnorpholinium iodide] | 16 | 64 | 0.5 | 4 | 0.25 | 0.25 | 4 | – | – | – | – | – | – | – | – |
| CCCC[N+]1(CC#CI)CCOCC1 [Compound 93, 4-n-butyl-4-(3-iodopropargyl)-morpholinium methanesulfonate] | – | – | – | – | – | – | – | > 500 | > 500 | 125 | 125 | > 500 | > 500 | 500 | – |
| CCCCCCCCCCCCCCCC[N+]1(CC#CI)CCOCC1 [Compound 40, 1-hexadecyl-1-(3-iodopropargyt)-morpholinium methanesulfonate] | – | – | – | < 0.25 | – | – | < 0.25 | 4 | 4 | 0.5 | – | < 0.25 | 0.5 | – | – |
